{
  "source": "paper PMC9783898",
  "about": "(Pharmaceutics, 2022)",
  "key": {"PARP1": {"biological_target": "PARP1 (Homo sapiens, UniProt P09874)", "sequence (P09874 whole entry, species assumed)": "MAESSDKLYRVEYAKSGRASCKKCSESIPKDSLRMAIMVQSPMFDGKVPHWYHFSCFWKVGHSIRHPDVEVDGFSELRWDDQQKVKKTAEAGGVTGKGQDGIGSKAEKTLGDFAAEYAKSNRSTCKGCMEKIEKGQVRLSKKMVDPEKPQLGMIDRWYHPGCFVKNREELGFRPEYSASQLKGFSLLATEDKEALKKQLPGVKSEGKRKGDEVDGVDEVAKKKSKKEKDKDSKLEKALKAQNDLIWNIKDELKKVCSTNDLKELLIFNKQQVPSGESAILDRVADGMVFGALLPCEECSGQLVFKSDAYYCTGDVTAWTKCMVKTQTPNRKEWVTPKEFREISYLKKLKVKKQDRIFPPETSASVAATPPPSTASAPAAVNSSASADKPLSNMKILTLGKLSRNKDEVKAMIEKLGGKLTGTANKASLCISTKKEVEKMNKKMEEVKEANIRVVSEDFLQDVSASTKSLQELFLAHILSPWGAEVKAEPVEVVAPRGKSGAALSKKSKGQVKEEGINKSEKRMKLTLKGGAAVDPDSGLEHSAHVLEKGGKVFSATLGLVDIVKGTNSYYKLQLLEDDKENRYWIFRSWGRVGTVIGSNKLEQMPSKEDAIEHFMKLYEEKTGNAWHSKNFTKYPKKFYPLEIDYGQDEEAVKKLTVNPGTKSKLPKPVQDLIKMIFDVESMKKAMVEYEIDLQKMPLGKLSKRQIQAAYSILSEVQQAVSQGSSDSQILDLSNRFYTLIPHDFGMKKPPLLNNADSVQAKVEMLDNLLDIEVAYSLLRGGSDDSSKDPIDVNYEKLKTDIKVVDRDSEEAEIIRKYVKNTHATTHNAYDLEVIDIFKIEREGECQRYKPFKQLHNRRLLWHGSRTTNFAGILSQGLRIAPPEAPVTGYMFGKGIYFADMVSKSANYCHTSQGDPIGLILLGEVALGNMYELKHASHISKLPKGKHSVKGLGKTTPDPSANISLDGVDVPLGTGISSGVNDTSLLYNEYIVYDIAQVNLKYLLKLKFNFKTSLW", "assay": "PARP1 inhibition activity", "format": "biochemical"}, "[1]": {"tested_on": "MES-SA/Dx-5 (doxorubicin resistant human uterine sarcoma)", "assay": "cells", "conditions": "for IC20: MES-SA/Dx5, read-out: MES-SA/Dx5 IC20"}, "[2]": {"tested_on": "MES-SA (Human uterine sarcoma)", "assay": "Cytotoxicity assay (MTT, 48 h) on MES-SA", "format": "cell-based", "protocol": "Cells were cultured in modified McCoy’s 5a medium supplemented with 10% fetal bovine serum. […] After reaching approx. 90% confluence, cells were detached using 0.05% trypsin/EDTA solution and counted. Then, cells were plated at optimal density for the logarithmic phase of growth. MES-SA cells were seeded onto 96-well plate at a concentration of 3000 cells per well. Blank control wells were left cell-free for background absorption measurement. […] Control cells were incubated with media without compounds. MTT assays were performed after 48 h incubation. Briefly, culture medium was removed from each well and replaced with fresh medium with MTT (0.2 mg/mL). […] The plate was further shaken for 15 min at room temperature, and the optical density at 540 nm of the wells was measured using multichannel spectrophotometer (Thermo Scientific Multiskan EX, Waltham, MA, USA). The percent of alive cells were calculated according to the formula 100∙T/C, where T is the optical density of a test well after 48 h exposure to compound, and C is control cells optical density after 48 h. All compounds were tested in three independent experiments. The IC50 values were calculated using Graph Pad Prism (GraphPad, Inc., La Jolla, CA, USA)."}, "[3]": {"tested_on": "H9C2 (rat cardiomyocytes)", "assay": "Cytotoxicity assay (MTT, 48 h) on H9C2", "format": "cell-based", "conditions": "read-out: H9C2, IC50"}, "[4]": {"tested_on": "MCF-7 (human adenocarcinoma)", "assay": "Cytotoxicity assay (MTT, 48 h) on MCF-7", "format": "cell-based"}, "[5]": {"tested_on": "HCC1937 (human breast carcinoma)", "assay": "Cytotoxicity assay (MTT, 48 h) on HCC1937", "format": "cell-based"}, "MES-SA/Dx-5 cells [6]": {"tested_on": "MES-SA/Dx-5 cells", "assay": "Reversal of doxorubicin resistance (doxorubicin cytotoxicity in presence of compound at IC20)", "format": "cell-based, human", "conditions": "IC50 of DOX/IC50 of DOX with a conjugate at IC20, MES-SA/Dx-5", "protocol": "To calculate reversal fold (RF) values, doxorubicin cytotoxicity was determined in the presence of the tested compounds at their corresponding IC20 concentration as described above. RF values were calculated as IC50 of DOX/IC50 of DOX in the presence of a tested compound.\nNext, the cytotoxicity of 5a–c was evaluated on a doxorubicin resistant human uterus sarcoma cell line (MES-SA/Dx-5) using the MTT assay (Table 2). […] To explore the potential of the novel compounds to reverse doxorubicin resistance, cytotoxicity of doxorubicin was evaluated in the presence of 5a–c at their corresponding IC20 concentrations."}, "[7]": {"tested_on": "MES-SA/Dx-5 (doxorubicin resistant human uterine sarcoma)", "parameters": "method as in doi:10.1039/D2NJ00340F", "conditions": "MTT, cited from earlier work"}, "MES-SA/Dx-5 cells [8]": {"tested_on": "MES-SA/Dx-5 cells", "parameters": "method as in doi:10.1039/D2NJ00340F", "conditions": "IC50 of DOX/IC50 of DOX with compound at IC20, MES-SA/Dx-5; cited from earlier work"}, "[9]": {"tested_on": "MES-SA/Dx-5 (doxorubicin resistant human uterine sarcoma)", "conditions": "MES-SA/Dx-5 vs MES-SA"}, "[10]": {"conditions": "PARP1 inhibiting activity, Table 1, read-out: PARP1"}, "[11]": {"conditions": "MES-SA/Dx5, read-out: MES-SA/Dx5 IC50"}, "[12]": {"conditions": "Homo sapiens, MES-SA, read-out: MES-SA, IC50, MTT, 48 h"}, "[13]": {"conditions": "Homo sapiens, MCF7, 48 h, read-out: MCF-7, IC50, MTT, 48 h"}, "[14]": {"conditions": "Homo sapiens, HCC1937, 48 h, read-out: HCC1937, IC50, MTT, 48 h, BRCA1-deficient breast carcinoma"}},
  "note": "Where two headings read alike, the source gives them in different places.",
  "data": [
    {"smiles": "Cn1c(=O)c2c(Br)c(CN3CCCN(C(=O)CCC(=O)N4CCN(C(=O)c5cc(Cc6n[nH]c(=O)c7ccccc67)ccc5F)CC4)CC3)[se]c2c2ccccc21", "note": "[Compound 5a, 1-(4-((3-Bromo-5-methyl-4-oxo-4,5-dihydroselenopheno[3,2-c]quinolin-2-yl)methyl)-1,4-diazepan-1-yl)-4-(4-(2-fluoro-5-((4-oxo-3,4-dihydrophthalazin-1-yl)methyl)benzoyl)piperazin-1-yl)butane-1,4-dione]", "values": [
      {"measurement": "IC50", "setting": "PARP1; [10]", "value": "0.0046 ± 0.0005", "unit": "µM"},
      {"measurement": "IC20", "setting": "[1]", "value": "0.48 ± 0.094", "unit": "µM"},
      {"measurement": "IC50", "setting": "[1]; [11]", "value": "21.1 ± 3.94", "unit": "µM"},
      {"measurement": "IC50", "setting": "[2]; [12]", "value": "7.1 ± 2.7", "unit": "µM"},
      {"measurement": "IC50", "setting": "[3]; H9c2, 48 h", "value": "> 300", "unit": "µM"},
      {"measurement": "IC50", "setting": "[4]; [13]", "value": "> 100", "unit": "µM"},
      {"measurement": "IC50", "setting": "[5]; [14]", "value": "3.1 ± 1", "unit": "µM"},
      {"measurement": "melting point", "value": "> 200", "unit": "°C"},
      {"measurement": "RF (reversal fold)", "setting": "MES-SA/Dx-5 cells [6]", "value": "0.84 ± 0.16"}
    ]},
    {"smiles": "Cn1c(=O)c2c(Br)c(CN3CCCNCC3)[se]c2c2ccccc21", "note": "[Compound 1]", "values": [
      {"measurement": "IC50", "setting": "PARP1; [10]", "value": "> 1", "unit": "µM"},
      {"measurement": "PARP1 activity", "setting": "PARP1; at 1 µM concentration", "value": "did not decrease PARP1 activity"},
      {"measurement": "IC50", "setting": "[2]; [12]", "value": "17 to 21", "unit": "µM"},
      {"measurement": "IC50", "setting": "[2]; read-out: MES-SA, IC50, MTT", "value": "21 ± 3.9", "unit": "µM"},
      {"measurement": "IC50", "setting": "[3]; H9c2, 48 h", "value": "> 300", "unit": "µM"},
      {"measurement": "IC50", "setting": "[4]; [13]", "value": "17 to 21", "unit": "µM"},
      {"measurement": "IC50", "setting": "[4]; read-out: MCF-7, IC50, MTT, 48 h", "value": "17.1 ± 1.9", "unit": "µM"},
      {"measurement": "IC20", "setting": "[7]; read-out: MES-SA/Dx5 IC20", "value": "7.96 ± 3.03", "unit": "µM"},
      {"measurement": "IC50", "setting": "[7]; read-out: MES-SA/Dx5 IC50", "value": "21.1 ± 2.49", "unit": "µM"},
      {"measurement": "RF (reversal fold)", "setting": "MES-SA/Dx-5 cells [8]", "value": "4.72 ± 0.63"},
      {"measurement": "IC50", "setting": "[5]; [14]", "value": "17 to 21", "unit": "µM"},
      {"measurement": "IC50", "setting": "[5]; read-out: HCC1937, IC50, MTT, 48 h, BRCA1-deficient breast carcinoma", "value": "19.9 ± 4.8", "unit": "µM"}
    ]},
    {"smiles": "O=C(c1cc(Cc2n[nH]c(=O)c3ccccc23)ccc1F)N1CCN(C(=O)C2CC2)CC1", "note": "[Olaparib, reference compound]", "values": [
      {"measurement": "IC50", "setting": "[1]; [11]", "value": "> 100", "unit": "µM"},
      {"measurement": "IC50", "setting": "[2]; Homo sapiens, MES-SA, read-out: MES-SA, IC50", "value": "> 100", "unit": "µM"},
      {"measurement": "IC50", "setting": "[4]; Homo sapiens, MCF7, 48 h, read-out: MCF-7, IC50", "value": "> 100", "unit": "µM"},
      {"measurement": "IC50", "setting": "[5]; Homo sapiens, HCC1937, 48 h, read-out: HCC1937, IC50", "value": "> 100", "unit": "µM"}
    ]},
    {"smiles": "Cn1c(=O)c2c(Br)c(CN3CCCN(C(=O)CCCCCCCCC(=O)N4CCN(C(=O)c5cc(Cc6n[nH]c(=O)c7ccccc67)ccc5F)CC4)CC3)[se]c2c2ccccc21", "note": "[Compound 5b, 1-(4-((3-Bromo-5-methyl-4-oxo-4,5-dihydroselenopheno[3,2-c]quinolin-2-yl)methyl)-1,4-diazepan-1-yl)-10-(4-(2-fluoro-5-((4-oxo-3,4-dihydrophthalazin-1-yl)methyl)benzoyl)piperazin-1-yl)decane-1,10-dione]", "values": [
      {"measurement": "IC50", "setting": "PARP1; [10]", "value": "0.013 ± 0.0018", "unit": "µM"},
      {"measurement": "IC20", "setting": "[1]", "value": "0.86 ± 0.096", "unit": "µM"},
      {"measurement": "IC50", "setting": "[1]; [11]", "value": "1.67 ± 0.03", "unit": "µM"},
      {"measurement": "times more cytotoxic to MES-SA/Dx-5 than regular MES-SA cells", "setting": "[9]", "value": "~20", "unit": "times"},
      {"measurement": "IC50", "setting": "[2]; [12]", "value": "32.5 ± 1.6", "unit": "µM"},
      {"measurement": "IC50", "setting": "[3]; H9c2, 48 h", "value": "> 300", "unit": "µM"},
      {"measurement": "IC50", "setting": "[4]; [13]", "value": "> 100", "unit": "µM"},
      {"measurement": "IC50", "setting": "[5]; [14]", "value": "> 100", "unit": "µM"},
      {"measurement": "melting point", "value": "172 to 174", "unit": "°C"},
      {"measurement": "RF (reversal fold)", "setting": "MES-SA/Dx-5 cells [6]", "value": "3.42 ± 0.12"}
    ]},
    {"smiles": "Cn1c(=O)c2c(Br)c(CN3CCCN(C(=O)CCCCCCCCCCC(=O)N4CCN(C(=O)c5cc(Cc6n[nH]c(=O)c7ccccc67)ccc5F)CC4)CC3)[se]c2c2ccccc21", "note": "[Compound 5c, 1-(4-((3-Bromo-5-methyl-4-oxo-4,5-dihydroselenopheno[3,2-c]quinolin-2-yl)methyl)-1,4-diazepan-1-yl)-12-(4-(2-fluoro-5-((4-oxo-3,4-dihydrophthalazin-1-yl)methyl)benzoyl)piperazin-1-yl)dodecane-1,12-dione]", "values": [
      {"measurement": "IC50", "setting": "PARP1; [10]", "value": "0.147 ± 0.0022", "unit": "µM"},
      {"measurement": "IC50", "setting": "PARP1; read-out: PARP1 IC50", "value": 0.147, "unit": "µM"},
      {"measurement": "IC20", "setting": "[1]", "value": "0.549 ± 0.074", "unit": "µM"},
      {"measurement": "IC50", "setting": "[1]; [11]", "value": "26.2 ± 0.03", "unit": "µM"},
      {"measurement": "IC50", "setting": "[2]; [12]", "value": "> 100", "unit": "µM"},
      {"measurement": "IC50", "setting": "[3]; H9c2, 48 h", "value": "> 300", "unit": "µM"},
      {"measurement": "IC50", "setting": "[4]; [13]", "value": "> 100", "unit": "µM"},
      {"measurement": "IC50", "setting": "[5]; [14]", "value": "> 100", "unit": "µM"},
      {"measurement": "RF (reversal fold)", "setting": "MES-SA/Dx-5 cells [6]", "value": "3.36 ± 0.11"}
    ]},
    {"smiles": "COc1cccc2c1C(=O)c1c(O)c3c(c(O)c1C2=O)C[C@@](O)(C(=O)CO)C[C@@H]3O[C@H]1C[C@H](N)[C@H](O)[C@H](C)O1", "note": "[Doxorubicin, reference compound]", "values": [
      {"measurement": "IC50", "setting": "[1]; MES-SA/Dx5, read-out: Doxorubicin IC50", "value": "2.4 ± 0.41", "unit": "µM"},
      {"measurement": "IC50", "setting": "[2]; Homo sapiens, MES-SA, MTT, read-out: MES-SA, IC50", "value": "0.084 ± 0.011", "unit": "µM"},
      {"measurement": "IC50", "setting": "[3]; H9c2, MTT, 48 h", "value": "3.9 ± 0.6", "unit": "µM"},
      {"measurement": "IC50", "setting": "[4]; Homo sapiens, MCF7, 48 h, MTT, 48 h, read-out: MCF-7, IC50", "value": "0.47 ± 0.14", "unit": "µM"},
      {"measurement": "IC50", "setting": "[5]; Homo sapiens, HCC1937, 48 h, MTT, 48 h, BRCA1-deficient breast carcinoma, read-out: HCC1937, IC50", "value": "1.08 ± 0.1", "unit": "µM"}
    ]}
  ]
}
